Reference: patent US20220151236A1, “NOVEL OXADIAZOLE COMPOUNDS FOR CONTROLLING OR PREVENTING PHYTOPATHOGENIC FUNGI” (PI INDUSTRIES LTD., priority 2019, published 2022)

Experiments:
Alternaria solani = Alternaria solani (Early Blight of Tomato/Potato): radial mycelial growth on potato dextrose agar; assay type: cell-based; settings: 168 h, potato dextrose agar, 25° C., 60% relative humidity, seven days, read-out: control (radial growth compared to the untreated check)
Protocol: Compounds were dissolved in 0.3% dimethyl sulfoxide and then added to potato dextrose agar medium just prior to dispensing it into petri dishes. 5 mL medium with the compound in the desired concentration was dispensed into 60 mm sterile petri-plates. After solidification each plate was seeded with a 5 mm size mycelial disc taken from the periphery of an actively growing virulent culture plate. Plates were incubated in growth chambers at 25° C. temperature and 60% relative humidity for seven days and then the radial growth was measured and compared to that of the untreated control. Compounds 2 85 89 92 94 108 113 114 131 138 142 143

Pyricularia Oryzae = assay: microbe, parasite or virus in culture; assay type: cell-based; settings: 168 h, read-out: control (radial growth compared to the untreated check)
Phakopsora pachyrhizi = Phakopsora pachyrhizi Test on Soybean (preventive activity, greenhouse); assay type: in vivo; settings: preventive spray on young Soybean plants, inoculated one day after treatment, rated 3, 7, 10 and 15 days after application, read-out: Efficacy (% control), disease severity compared to the untreated check
Method in brief: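 Preventive greenhouse test: young soybean plants sprayed with compound in 2% DMSO/acetone plus emulsified water at stated rates, inoculated one day later with 2×10^5 P. pachyrhizi conidia, held at 22-24° C and 80-90% RH. Disease severity (0-100%) rated 3, 7, 10 and 15 days after application; % control relative to untreated plants.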

Colletotrichum capsici = Colletotrichum capsici (Anthracnose): radial mycelial growth on potato dextrose agar; assay type: cell-based; settings: Colletotrichum truncatum, 168 h, 25° C., 60% relative humidity, seven days, read-out: control (radial growth compared to the untreated check)

Structure (SMILES) | inhibition of growth at 300 ppm (Alternaria solani) [%] | inhibition of growth at 300 ppm (Pyricularia Oryzae) [%] | pest or weed control at 500 ppm (Phakopsora pachyrhizi) [%] | inhibition of growth at 300 ppm (Colletotrichum capsici) [%]
Cc1ccccc1S(C)(=O)=NC(=O)Cc1cn2cc(-c3noc(C(F)(F)F)n3)ccc2n1 (centres unmarked) [Compound 148, N-(methyl(oxo)(o-tolyl)-λ^6-sulfaneylidene)-2-(6-(5-(trifluoromethyl)-1,2,4-oxadiazol-3-yl)imidazo[1,2-a]pyridin-2-yl)acetamide] | ≥ 70 | – | – | –
CS(=O)(=NC(=O)Cc1cn2cc(-c3noc(C(F)(F)F)n3)ccc2n1)c1cc(Cl)cc(Cl)c1 (centres unmarked) [Compound 140, N-((3,5-dichlorophenyl)(methyl)(oxo)-λ^6-sulfaneylidene)-2-(6-(5-(trifluoromethyl)-1,2,4-oxadiazol-3-yl)imidazo[1,2-a]pyridin-2-yl)acetamide] | – | ≥ 70 | – | –
O=C(NCc1cn2cc(-c3noc(C(F)(F)F)n3)ccc2n1)c1cocn1 [Compound 92, N-((6-(5-(trifluoromethyl)-1,2,4-oxadiazol-3-yl)imidazo[1,2-a]pyridin-2-yl)methyl)oxazole-4-carboxamide] | ≥ 70 | ≥ 70 | – | –
O=C(NCc1cn2cc(-c3noc(C(F)(F)F)n3)ccc2n1)c1ccc(OC(F)(F)F)cc1 [Compound 89, 4-(trifluoromethoxy)-N-((6-(5-(trifluoromethyl)-1,2,4-oxadiazol-3-yl)imidazo[1,2-a]pyridin-2-yl)methyl)benzamide] | ≥ 70 | – | ≥ 70 | –
O=C(Cc1ccccc1)NCc1cn2cc(-c3noc(C(F)(F)F)n3)ccc2n1 [Compound 94, 2-phenyl-N-((6-(5-(trifluoromethyl)-1,2,4-oxadiazol-3-yl)imidazo[1,2-a]pyridin-2-yl)methyl)acetamide] | ≥ 70 | – | ≥ 70 | –
COCCS(=O)(=NC(=O)Cc1cn2cc(-c3noc(C(F)(F)F)n3)ccc2n1)c1ccc(Cl)cc1 (centres unmarked) [Compound 136, N-((4-chlorophenyl)(2-methoxyethyl)(oxo)-λ^6-sulfaneylidene)-2-(6-(5-(trifluoromethyl)-1,2,4-oxadiazol-3-yl)imidazo[1,2-a]pyridin-2-yl)acetamide] | – | ≥ 70 | – | –
O=S(=O)(Cc1cn2cc(-c3noc(C(F)(F)F)n3)ccc2n1)c1ccc(Cl)c(Cl)c1 [Compound 117, 3-(2-(((3,4-dichlorophenyl)sulfonyl)methyl)imidazo[1,2-a]pyridin-6-yl)-5-(trifluoromethyl)-1,2,4-oxadiazole] | – | – | – | ≥ 70
CS(=O)(=NC(=O)Cc1cn2cc(-c3noc(C(F)(F)F)n3)ccc2n1)c1ccc(Cl)c(Cl)c1 (centres unmarked) [Compound 143, N-((3,4-dichlorophenyl)(methyl)(oxo)-λ^6-sulfaneylidene)-2-(6-(5-(trifluoromethyl)-1,2,4-oxadiazol-3-yl)imidazo[1,2-a]pyridin-2-yl)acetamide] | ≥ 70 | – | – | –
COc1cccc(SCc2cn3ccc(-c4noc(C(F)(F)F)n4)cc3n2)c1 [Compound 46, 3-(2-(((3-methoxyphenyl)thio)methyl)imidazo[1,2-a]pyridin-7-yl)-5-(trifluoromethyl)-1,2,4-oxadiazole] | – | – | ≥ 70 | ≥ 70
CS(=O)(=NC(=O)Cc1cn2cc(-c3noc(C(F)(F)F)n3)ccc2n1)c1ccc(Br)cc1 (centres unmarked) [Compound 142, N-((4-bromophenyl)(methyl)(oxo)-λ^6-sulfaneylidene)-2-(6-(5-(trifluoromethyl)-1,2,4-oxadiazol-3-yl)imidazo[1,2-a]pyridin-2-yl)acetamide] | ≥ 70 | ≥ 70 | – | –
FC(F)(F)c1nc(-c2ccn3cc(CSc4ccccc4)nc3c2)no1 [Compound 50, 3-(2-((phenylthio)methyl)imidazo[1,2-a]pyridin-7-yl)-5-(trifluoromethyl)-1,2,4-oxadiazole] | – | – | – | ≥ 70
O=C(c1cn2ccc(-c3noc(C(F)(F)F)n3)cc2n1)N1CCC1 [Compound 33, azetidin-1-yl(7-(5-(trifluoromethyl)-1,2,4-oxadiazol-3-yl)imidazo[1,2-a]pyridin-2-yl)methanone] | – | ≥ 70 | ≥ 70 | –
FC(F)(F)c1nc(-c2ccc3nc(CSCc4ccccc4)cn3c2)no1 [Compound 108, 3-(2-((benzylthio)methyl)imidazo[1,2-a]pyridin-6-yl)-5-(trifluoromethyl)-1,2,4-oxadiazole] | ≥ 70 | – | – | –
CS(=O)(=NC(=O)Cc1cn2cc(-c3noc(C(F)(F)F)n3)ccc2n1)c1cccc(F)c1 (centres unmarked) [Compound 131, N-((3-fluorophenyl)(methyl)(oxo)-λ^6-sulfaneylidene)-2-(6-(5-(trifluoromethyl)-1,2,4-oxadiazol-3-yl)imidazo[1,2-a]pyridin-2-yl)acetamide] | ≥ 70 | – | – | –
O=S(=O)(Cc1cn2cc(-c3noc(C(F)(F)F)n3)ccc2n1)c1ccccc1 [Compound 116, 3-(2-((phenylsulfonyl)methyl)imidazo[1,2-a]pyridin-6-yl)-5-(trifluoromethyl)-1,2,4-oxadiazole] | – | – | ≥ 70 | ≥ 70
CS(=O)(Cc1cn2ccc(-c3noc(C(F)(F)F)n3)cc2n1)=NC(=O)c1ccccc1C(F)(F)F (centres unmarked) [Compound 161, N-(methyl(oxo)((7-(5-(trifluoromethyl)-1,2,4-oxadiazol-3-yl)imidazo[1,2-a]pyridin-2-yl)methyl)-λ^6-sulfanylidene)-2-(trifluoromethyl)benzamide] | – | ≥ 70 | – | –
FC(F)(F)c1nc(-c2ccc3nc(CSc4cc(Cl)cc(Cl)c4)cn3c2)no1 [Compound 111, 3-(2-(((3,5-dichlorophenyl)thio)methyl)imidazo[1,2-a]pyridin-6-yl)-5-(trifluoromethyl)-1,2,4-oxadiazole] | – | – | ≥ 70 | ≥ 70
FC(F)(F)c1nc(-c2ccc3nc(CSC4CCCCC4)cn3c2)no1 [Compound 114, 3-(2-((cyclohexylthio)methyl)imidazo[1,2-a]pyridin-6-yl)-5-(trifluoromethyl)-1,2,4-oxadiazole] | ≥ 70 | ≥ 70 | – | –
COc1ccc(S(C)(=O)=NC(=O)Cc2cn3cc(-c4noc(C(F)(F)F)n4)ccc3n2)cc1 (centres unmarked) [Compound 138, N-((4-methoxyphenyl)(methyl)(oxo)-λ^6-sulfaneylidene)-2-(6-(5-(trifluoromethyl)-1,2,4-oxadiazol-3-yl)imidazo[1,2-a]pyridin-2-yl)acetamide] | ≥ 70 | ≥ 70 | – | –
CN(C(=O)c1cn2ccc(-c3noc(C(F)(F)F)n3)cc2n1)c1ccc(Cl)cc1 [Compound 12, N-(4-chlorophenyl)-N-methyl-7-(5-(trifluoromethyl)-1,2,4-oxadiazol-3-yl)imidazo[1,2-a]pyridine-2-carboxamide] | – | ≥ 70 | ≥ 70 | –
O=C(NCc1cn2cc(-c3noc(C(F)(F)F)n3)ccc2n1)c1ccccn1 [Compound 87, N-((6-(5-(trifluoromethyl)-1,2,4-oxadiazol-3-yl)imidazo[1,2-a]pyridin-2-yl)methyl)picolinamide] | – | ≥ 70 | ≥ 70 | –
CS(=O)(=NC(=O)Cc1cn2cc(-c3noc(C(F)(F)F)n3)ccc2n1)c1cccc(Cl)c1 (centres unmarked) [Compound 149, N-((3-chlorophenyl)(methyl)(oxo)-λ^6-sulfaneylidene)-2-(6-(5-(trifluoromethyl)-1,2,4-oxadiazol-3-yl)imidazo[1,2-a]pyridin-2-yl)acetamide] | ≥ 70 | – | – | –
O=C(NCc1cn2cc(-c3noc(C(F)(F)F)n3)ccc2n1)c1cccc(Cl)c1 [Compound 85, 3-chloro-N-((6-(5-(trifluoromethyl)-1,2,4-oxadiazol-3-yl)imidazo[1,2-a]pyridin-2-yl)methyl)benzamide] | ≥ 70 | – | ≥ 70 | –
COc1ccc(NC(=O)c2cn3ccc(-c4noc(C(F)(F)F)n4)cc3n2)cc1 [Compound 2, N-(4-methoxyphenyl)-7-(5-(trifluoromethyl)-1,2,4-oxadiazol-3-yl)imidazo[1,2-a]pyridine-2-carboxamide] | ≥ 70 | – | ≥ 70 | –
FC(F)(F)c1nc(-c2ccc3nc(CSc4cccc(Cl)c4)cn3c2)no1 [Compound 103, 3-(2-(((3-chlorophenyl)thio)methyl)imidazo[1,2-a]pyridin-6-yl)-5-(trifluoromethyl)-1,2,4-oxadiazole] | – | ≥ 70 | ≥ 70 | –
COc1ccnc(S(C)(=O)=NC(=O)Cc2cn3cc(-c4noc(C(F)(F)F)n4)ccc3n2)c1 (centres unmarked) [Compound 146, N-((4-methoxypyridin-2-yl)(methyl)(oxo)-λ^6-sulfaneylidene)-2-(6-(5-(trifluoromethyl)-1,2,4-oxadiazol-3-yl)imidazo[1,2-a]pyridin-2-yl)acetamide] | ≥ 70 | ≥ 70 | – | –
FC(F)(F)c1nc(-c2ccc3nc(CSC4CCCC4)cn3c2)no1 [Compound 113, 3-(2-((cyclopentylthio)methyl)imidazo[1,2-a]pyridin-6-yl)-5-(trifluoromethyl)-1,2,4-oxadiazole] | ≥ 70 | ≥ 70 | – | –
